Experimental data taken from patent publication US20260364081A1, “METHOD FOR PREVENTING OR TREATING ATTENTION DEFICIT HYPERACTIVITY DISORDER (ADHD) AND FOR PREPARING A COMPOUND OR SALT THEREOF” (ASTROGEN, INC., priority 2023, published 2026).
Where a name gives a salt, the structure may show the parent alone. Read-outs that look alike come from different tables or passages of the source.

Key:
norepinephrine receptor = norepinephrine receptor (Homo sapiens, UniProt P23975); conditions: read-out: norepinephrine reuptake inhibition IC50, HEK-293T cells stably expressing the norepinephrine receptor, 30 min drug incubation, 37 °C, 30 min kinetic fluorescence reading
norepinephrine receptor, sequence (P23975 whole entry): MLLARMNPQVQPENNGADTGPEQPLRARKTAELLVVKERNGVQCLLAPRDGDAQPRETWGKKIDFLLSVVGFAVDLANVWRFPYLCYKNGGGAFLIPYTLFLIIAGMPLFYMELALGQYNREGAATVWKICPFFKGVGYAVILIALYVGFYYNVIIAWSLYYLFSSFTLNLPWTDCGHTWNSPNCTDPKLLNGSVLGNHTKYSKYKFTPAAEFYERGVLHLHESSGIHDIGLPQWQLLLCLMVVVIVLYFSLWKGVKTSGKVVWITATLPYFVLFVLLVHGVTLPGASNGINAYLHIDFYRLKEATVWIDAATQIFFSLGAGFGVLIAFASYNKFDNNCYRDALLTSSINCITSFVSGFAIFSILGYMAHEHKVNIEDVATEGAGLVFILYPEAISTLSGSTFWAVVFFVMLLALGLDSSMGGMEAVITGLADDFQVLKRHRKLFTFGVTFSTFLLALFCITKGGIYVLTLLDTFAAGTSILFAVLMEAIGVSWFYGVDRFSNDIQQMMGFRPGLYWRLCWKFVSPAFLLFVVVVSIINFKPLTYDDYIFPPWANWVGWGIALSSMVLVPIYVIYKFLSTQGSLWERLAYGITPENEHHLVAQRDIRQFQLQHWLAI
Method: The norepinephrine reuptake ability in a cell line expressing the norepinephrine receptor was confirmed using a kit (Neurotransmitter Transporter Uptake Assay Kit, Molecular Devices) composed of a fluorescent material that mimics amine neurotransmitters and a masking dye.
First, HEK-293T cells stably expressing the norepinephrine receptor were seeded in a 96-well Black/Clear Bottom Plate to contain 6×10^4 cells in 100 μl of cell culture medium per well. After incubating for 20 hours in a 37 °C, 5% CO2 incubator to allow the cells to properly attach and stabilize on the plate, the cell culture medium was removed, and 100 μl of an HBSS+0.1% BSA with 20 mM HEPES aqueous solution in which a drug of a target concentration was dissolved was dispensed into each well. For the control group, 100 μl of a drug-free buffer solution (HBSS+0.1% BSA with 20 mM HEPES aqueous solution) was dispensed. The plate was incubated for 30 minutes in a 37 °C, 5% CO2 incubator to allow the drug to sufficiently react with the receptor.
Thereafter, fluorescence was measured for a total of 30 minutes in Kinetic reading mode at Ex/Em=440 nm/520 nm using a fluorescence plate reader (SpectraMax®). The measured fluorescence intensity value was converted into a value of “reuptake inhibition rate (%)” using the following formula, and then a dose-response curve was plotted through 4-parameter (Log) logistic regression, and the IC50 value for each drug was calculated and compared (FIGS. 4 and 5).

[1] = Thermal stability test (content by HPLC, visual discoloration); format: physicochemical; conditions: for Content after 8 weeks / Content at 0 weeks / remaining at 1344 h: HPLC; for Content after 8 weeks / remaining at 1344 h: 8 weeks at 40±2 °C and 75±5% RH, opaque glass vials; for Content after 8 weeks: 80640 min; for Content at 0 weeks: start of storage at 40±2 °C and 75±5% RH; for remaining at 1344 h: solid, 75% rh, read-out: Content after 8 weeks; for Discoloration: visual, after 8 weeks at 40±2 °C and 75±5% RH
Method: 8 mg each of the viloxazine hydrochloride of Comparative Examples 1 and 2, and the novel salts of (S)-viloxazine of Examples 6 to 16 were placed into opaque glass vials and stored at 40±2 °C and 75±5% RH. After 8 weeks, each sample was taken out, its content was analyzed by high-performance liquid chromatography (HPLC), and the presence of discoloration was visually confirmed (Table 2).

[2] = cited from earlier work
[3] = system: attention-deficit/hyperactivity disorder (ADHD); conditions: clinical trials, patients with ADHD, versus placebo; cited from earlier work
5-HT2C receptor = conditions: background statement; cited from earlier work
CYP2D6 = conditions: background statement; cited from earlier work
[4] = background statement; cited from earlier work
norepinephrine reuptake = conditions: background statement, cited from earlier work
5HT2B receptor = conditions: background statement; cited from earlier work
dopamine = conditions: background statement; cited from earlier work

SMILES | IC50 (norepinephrine receptor) | Content after 8 weeks [1] | Content at 0 weeks [1] | other results
CCOc1ccccc1OC[C@@H]1CNCCO1 [Example 7, (S)-viloxazine sulfate] | 29.3 µM | 98.6% | 99.3% | –
CCOc1ccccc1OC[C@@H]1CNCCO1 [Example 15, (S)-viloxazine citrate] | 40.1 µM | 98.6% | 99.0% | –
CCOc1ccccc1OC[C@@H]1CNCCO1 [Example 13, (S)-viloxazine fumarate] | 36.1 µM | 98.5% | 99.0% | –
CCOc1ccccc1OC[C@@H]1CNCCO1 [Example 8, (S)-viloxazine hydrobromide] | – | – | – | IC50 (norepinephrine receptor; hydrobromide): 38.6 µM; Content after 8 weeks ([1]; hydrobromide): 99.0%; Content at 0 weeks ([1]; hydrobromide): 99.2%
CCOc1ccccc1OC[C@@H]1CNCCO1 [Example 9, (S)-viloxazine nitrate] | 42 µM | 97.7% | 98.2% | –
CCOc1ccccc1OC[C@@H]1CNCCO1 [Example 10, (S)-viloxazine acetate] | 24.3 µM | 99.3% | 99.6% | –
CCOc1ccccc1OC[C@@H]1CNCCO1 [Example 6, (S)-viloxazine hydrochloride] | – | – | – | IC50 (norepinephrine receptor; hydrochloride): 22.5 µM; Content at 0 weeks ([1]; hydrochloride): 99.5%; remaining at 1344 h [1]: 99.2%
CCOc1ccccc1OC[C@@H]1CNCCO1 [Example 14, (S)-viloxazine maleate] | 28.8 µM | 98.5% | 99.1% | –
CCOc1ccccc1OC[C@@H]1CNCCO1 [Example 12, (S)-viloxazine oxalate] | 34.3 µM | 98.6% | 99.1% | –
CCOc1ccccc1OC[C@@H]1CNCCO1 [Example 16, (S)-viloxazine methanesulfonate] | – | 98.0 → 98.0% | 98.0 → 98.0% | –
CCOc1ccccc1OCC1CNCCO1 (racemic) [Comparative Example 1, (R,S)-viloxazine hydrochloride] | 62.9 µM | – | 99.5% | suicidal ideation or suicide risk ([2]; during initial treatment or dosage adjustment): increased risk of suicidal ideation or suicide; risk in patients with bipolar disorder ([2]; patients with bipolar disorder): risk of worsening symptoms in patients with bipolar disorder; most common side effects ([2]; patients): drowsiness, reduced appetite, fatigue, nausea, and insomnia; heart rate and blood pressure ([2]; some of the patients administered viloxazine HCl): increase in heart rate and blood pressure; risk of drug abuse, dependence, or withdrawal symptoms ([2]; upon treatment discontinuation): low risk of drug abuse, dependence, or withdrawal symptoms; clinical efficacy in ADHD symptoms [3]: showed improved symptoms compared to patients who took a placebo; activity at 5-HT2C receptor (5-HT2C receptor): 5-HT2C receptor agonist; metabolizing enzyme (CYP2D6): metabolized through the CYP2D6 enzyme; route of excretion of metabolites [4]: majority of its metabolites are excreted through urine; remaining at 1344 h [1]: 98.7%; Discoloration ([1]; hydrochloride): discolored to an off-white color; norepinephrine reuptake inhibition (in words) (norepinephrine reuptake; listed as Racemic viloxazine hydrochloride): selective inhibition of norepinephrine reuptake; norepinephrine reuptake inhibition (in words) (norepinephrine reuptake; hydrochloride): selectively inhibits norepinephrine reuptake; activity at 5HT2B receptor (5HT2B receptor): 5HT2B receptor antagonist; effect on dopamine (dopamine): low effect on dopamine
CCOc1ccccc1OC[C@H]1CNCCO1 [Comparative Example 2, (R)-viloxazine hydrochloride, reference compound] | 108 µM | – | 99.2% | remaining at 1344 h [1]: 98.1%; Discoloration ([1]; hydrochloride): discolored to an off-white color
CCOc1ccccc1OC[C@@H]1CNCCO1 [Example 11, (S)-viloxazine trifluoroacetate] | 33.6 µM | 98.5% | 99.0% | –
